Counter-ions that a name gives are not always drawn.
Tests used:
DMD exon 51 [1] = assay: DMD exon 51 skipping in reprogrammed DMD patient fibroblasts fused to myotubes (GM05017, iDRM05017) with exon 51 AO; type: cell-based, human; settings: compound added 24 h after AO for two days; nested RT-PCR exons 43-52
Protocol: (A) Differentiated primary mouse myotubes were transfected either with 100 nM 2′-O-methyl M23D, which targets exon 23 splice donor region or mock transfected for 24 hours after which the transfection reagent was removed, and myotubes were treated with different concentrations of Dantrolene for 48 hours. Nested RT-PCR was performed on cDNA between exons 20-26, as previously described. The 901 bp band is the full-length mRNA product, the 688 bp mRNA product is a single skip of exon 23, and the 550 bp mRNA product is a double skip of exons 22 and 23. (B) Mouse Dmd exon 23-skipped transcript levels were quantified using a taqman assay with primer-probe sets spanning the splice junction created by an exon 23 skip (22-24 join) relative to primers amplifying the splice junction of exons 22 and 23 (representing the full length mRNA), as previously described. […] Error bars represent standard deviation of qRT-PCR triplicates. (C) Patient derived fibroblasts with exon 45-50 deletion (confirmed by microarray, see FIG. 6) were immortalized with lentiviral hTERT and transduced with inducible lentiviral MyoD [26]. Cells were grown to confluence, induced for MyoD activity, and fused for 10 days in low serum differentiation media. On Day 7, h51AON [5′ […] 3′] (SEQ ID NO:2) (same sequence as Pro051) within human exon 51 was added at concentrations indicated. Twenty-four hours later Dantrolene or vehicle was added. Cells were harvested 2 days later and total RNA isolated. RT-PCR amplified a fragment of cDNA from exons 42-53 which was followed by a nested PCR to generate a fragment spanning exons 43-52. The 540 bp product is the full length DMD mRNA species and the 307 bp product indicates the exon 51 skip isoform. Quantitation was performed using the Agilent Bioanalyzer and represented as the skip/full-length mRNA ratio.
Patient fibroblasts with a DMD exon 45-50 deletion were immortalized and transduced with a lenti-viral vector expressing inducible MyoD to create iDRMs (inducibly directly reprogrammable myotubes, specifically iDRM05017s). iDRM05017s were induced for MyoD activity and then cultured for 10 days in fusion media. On Day 7, AO was added for twenty-four hours then removed and Piperacetazine, Trifluoperazine Dihydrochloride, Fluphenazine Dihydrochloride or vehicle (Dimethyl sulfoxide; DMSO) were added in fresh media. After two days total RNA was harvested, cDNA reverse transcribed with a DMD specific primer in exon 54, and exon 51 skipping was detected by nested RT-PCR spanning exons 43-52. Quantitation of exon 51 skipping was performed using the Agilent Bioanalyzer and is represented as the proportion of exon 51 skipping. Error bars represent the standard deviation (SD) of 3 independent wells.
Patient fibroblasts were transduced with HTERT and an inducible MyoD vector [26]. […] Exon 51 skipping activity was assessed in the context of transfecting an exon 51 2′-O-methyl AO with equivalent sequence to Pro051 seven days after fusion. This AO is directed at an exonic splicing enhancer (ESE) sequence within exon 51. The AO was removed prior to addition of dantrolene and cultures were harvested two days later. A nested RT-PCR was performed between DMD exons 43-52 and levels of exon 51 skipping were determined by quantitating capillary electrophoresis separated fragments representing skipped and unskipped DMD mRNA.

exon skipping = assay: Counter screens, 16 point titrations and mdx mouse myotubes (validation of lead hits); type: cell-based
Excerpt: The cell line, which was adapted to allow the screening of thousands of compounds in multiple replicates, was obtained from Dr. Qi Lu. […]

[2] = tested on: human DMD exon 50 GFP based reporter; assay: BioMol high throughput screen in Ex50-GFP reporter C2C12 myoblasts, with or without AON6; type: cell-based, mouse; settings: compound 10 uM; for Average Fluorescence (n = 3): average of 3 replicate plates
Excerpt: Small molecule libraries were screened for exon skipping promoting activity in C2C12 myoblasts expressing a human DMD exon 50 GFP based reporter. […] In the reporter cells, successful skipping of DMD exon 50 creates in-frame GFP expression. Number of cells that were fluorescing was quantified using a high content cell imager in 384 well plate format. Fluorescence was normalized by subtracting the average fluorescence value of the carrier (DMSO) controls. Fluorescence readouts are plotted for the BioMol library screen both with (+AO) and without (−AO) from Source Plate 1 (containing the Orphan Ligand, Ion Channel, Enzyme Inhibitor, and Endocannabanoid libraries, n=300). Each point for the DMSO controls, all compounds, and the Top 5% from Source Plate 1 (n=15) represents the average normalized fluorescence of 6 replicates in the −AO screen and 3 replicates in the +AO screen. […] Individual points for dantrolene are plotted with the bold horizontal line indicating the median. The short horizontal lines interspersed among the data points indicate 1, 2, and 3 standard deviations away from the DMSO treatment mean fluorescence.
In contrast to prior screens aimed at identifying small molecules which impact exon skipping, our screen is unique at least because it relies on robust quantitation of a skipping reporter in the context of a muscle lineage cell in the presence and absence of suboptimal AO. These screens were performed using a mouse muscle cell line (C2C12) expressing a human DMD exon 50 GFP based reporter selected to minimize experimental variation and sensitivity in the context of an automated and quantitative fluorescent scanning system.
AO was added prior to small molecule incubation in an effort to identify molecules that facilitate AO skipping rather than AO delivery. The fluorescence induced by each compound was normalized to a vehicle controls per plate to correct for plate to plate variability. Fluorescence was averaged across replicate plates (n=6 without AO screen, n=3 with AO screen). Compounds were rank ordered based on average intensity of fluorescence and difference between the without AO and with AO screen (FIG. 1 and Table 2).
(§1) A stable clone was generated from C2C12 cells transfected with a human exon 50 DMD GFP reporter (ex50GFP) that has been previously described. Ex50GFP reporter myoblasts were seeded into uncoated 384 well plates and were incubated for 4 hours either with or without 300 nM of 2′-O-methyl phosphorothioate AON6 [5′[…] 3′ (SEQ ID NO:1)] targeting the human exon 50 splice donor site. Cells were transfected with AON6 using the FUGENE (Roche) transfection reagent per manufacturer's instructions. Following AON6 incubation, each component of the BioMol library (n=503) was screened at 10 uM concentration with a final concentration of the DMSO carrier being 1%. Forty-eight hours later fluorescence was measured using the MicroXpress high content imager and analyzed using MetaXpress. Immediately preceding imaging, DNA was stained with Hoescht for 30 min. The BioMol screen without AO (−AO) was performed in 6 replicates, and the with AO (+AO) screen was performed in 3 replicates. For the screen analysis raw fluorescence values were normalized to carrier controls present on each plate by subtracting the values. Negative fluorescence values were set to 0. The data from each compound were averaged from all replicates. For secondary screening by 12 or 16 point dose response, Ex50GFP myoblasts or C2C12 cells without the reporter were seeded on uncoated 384 well plates. A sub-optimal dose of AON6 targeting DMD exon 50 was added for 4 hours.

[3] = tested on: human DMD exon 50 GFP based reporter; assay: Secondary screening, 12 or 16 point titrations on the DMD exon 50 reporter cell line with or without AON6; type: cell-based, mouse
Protocol: 12 or 16 point titrations of compounds were added to the Ex50-GFP and C2C12 myoblasts either with or without AON6.
as §1, with “hours. Following the 4 hour incubation, a compound dilution was added (beginning at 100 uM with 1:1 dilutions) for either 12 or 16 points. After a 48 hour incubation with compounds, DNA was stained with Hoescht, and fluorescence determined using the high content imager and analyzed with MetaXpress.” for “hours.”

DMD exon 51 [4] = settings: cited from earlier work
[5] = With AON6 screen, 48 h, fluorescence normalized by subtracting DMSO carrier controls
[6] = With AON6 screen, 48 h, normalized to DMSO carrier controls
[7] = Without AON6 screen, 48 h, normalized to DMSO carrier controls

**Q.** For `CC(=O)c1ccc2c(c1)N(CCCN1CCC(CCO)CC1)c1ccccc1S2` [piperacetazine], which “AO directed DMD exon 51 skipping” value (DMD exon 51 [1]) is on record?
**A.** The value was “enhance AO directed DMD exon 51 skipping”.

**Q.** For `COC(=O)[C@H]1[C@H]2C[C@@H]3c4[nH]c5cc(OC)ccc5c4CCN3C[C@H]2C[C@@H](OC(=O)c2cc(OC)c(OC)c(OC)c2)[C@@H]1OC` [Reserpine], which “efficacy in counter screen and on mdx mouse myotubes” value (“efficacy” for short) (exon skipping) is on record?
**A.** Its value is “showing efficacy in counter screen and on mdx mouse myotubes”.

**Q.** With `CCOC(=O)Oc1c(OC)cc(C(=O)O[C@@H]2C[C@@H]3CN4CCc5c([nH]c6cc(OC)ccc56)[C@H]4C[C@@H]3[C@H](C(=O)OC)[C@H]2OC)cc1OC` [Syrosingopine] as the compound, how does the “efficacy” value (exon skipping) read?
**A.** The value was “showing efficacy in counter screen and on mdx mouse myotubes”.

**Q.** Which results are given for `CC1CNCCN1S(=O)(=O)c1cccc2cnccc12` (centres unmarked) [H-7]?
**A.** Fluorescence Plate 1 [2, 5]: 29.03; Fluorescence Plate 2 [2, 6]: 30.45; Fluorescence Plate 3 [2, 6]: 12.11; Average Fluorescence (n = 3) ([2]; With AON6 screen): 23.87; increase in fluorescence in the Ex50-GFP+AO compared to the reporter line without AO ([3]; 12 or 16 point titrations from 100 uM, positivity criterion (FIG. 5 legend: >10%)): 10%; dose response in Ex50-GFP reporter ([3]; 12 or 16 point titrations with AON6): evidence of a dose response

**Q.** With `O=c1[nH]c2ccccc2n1C1CCN(CCCC(c2ccc(F)cc2)c2ccc(F)cc2)CC1` [PIMOZIDE] as the compound, how does the “efficacy” value (exon skipping) read?
**A.** The value was “showing efficacy in counter screen and on mdx mouse myotubes”.

**Q.** Which “AO directed DMD exon 51 skipping” value (DMD exon 51 [1]) does the source give for `COC(=O)[C@H]1[C@H]2C[C@H]3c4[nH]c5ccccc5c4CCN3C[C@H]2CC[C@@H]1O` [rauwolscine hydrochloride] here?
**A.** The value was “enhance AO directed DMD exon 51 skipping”.

**Q.** For `CC1=CC(=O)c2ccccc2C1=O` [Menadione], which “AO directed DMD exon 51 skipping” value (DMD exon 51 [1]) is on record?
**A.** The value was “enhances AO directed DMD exon 51 skipping”.

**Q.** What does the source list for “Pro051: systemic 2′-O-methyl modified AO directed against DMD exon 51 (antisense UCAAGGAAGAUGGCAUUUCU; all 2'-O-methyl, backbone not given here)”?
**A.** rescued dystrophin protein levels (DMD exon 51 [4]; systemic 2'-O-methyl AO, phase 1-2a): 1.8-15.6 % of normal; 6 minute walk test at 48 weeks (DMD exon 51 [4]; weekly subcutaneous 6 mg/kg, non-placebo controlled extension): modest improvement

**Q.** For `CCCCN(CCCC)CCC(O)c1cc2c(Cl)cc(Cl)cc2c2cc(C(F)(F)F)ccc12.Cl` (centres unmarked) [Halofantrine hydrochloride], which “efficacy” value (exon skipping) is on record?
**A.** Its value is “showing efficacy in counter screen and on mdx mouse myotubes”.

**Q.** For `OCCN1CCN(CCCN2c3ccccc3Sc3ccc(C(F)(F)F)cc32)CC1` [Fluphenazine dihydrochloride], which “AO directed DMD exon 51 skipping” value (DMD exon 51 [1]) is on record?
**A.** Its value is “enhance AO directed DMD exon 51 skipping”.

**Q.** Which “efficacy” value (exon skipping) does the source give for `COC(=O)Nc1nc2cc(Sc3ccccc3)ccc2[nH]1` [Fenbendazole] here?
**A.** The value was “showing efficacy in counter screen and on mdx mouse myotubes”.

**Q.** Which “Fluorescence Plate 1” value [2, 7] does the source give for `CN(C)CCCn1cc(C2=C(c3c[nH]c4ccccc34)C(=O)NC2=O)c2ccccc21` [GF 109203X] here?
**A.** Its value is 22.19.

**Q.** What about the “Fluorescence Plate 2” value [2, 7] of the same compound?
**A.** The value was 15.01.

**Q.** What about the “Fluorescence Plate 3” value [2, 7] of the same compound?
**A.** The value was 13.67.

**Q.** And the “Fluorescence Plate 4” value [2, 7]?
**A.** The value was 66.78.

**Q.** What about the “Fluorescence Plate 5” value [2, 7] of the same compound?
**A.** Its value is 64.46.

**Q.** And the “Fluorescence Plate 6” value [2, 7]?
**A.** Its value is 66.48.

**Q.** What about the “Average Fluorescence (n = 6)” value ([2]; Without AON6 screen, average of 6 replicate plates) of the same compound?
**A.** The value was 41.76.

**Q.** And the “efficacy” value (exon skipping)?
**A.** Its value is “showing efficacy in counter screen and on mdx mouse myotubes”.

**Q.** With `CN1CCN(CCCN2c3ccccc3Sc3ccc(C(F)(F)F)cc32)CC1` [Trifluoperazine dihydrochloride] as the compound, how does the “AO directed DMD exon 51 skipping” value (DMD exon 51 [1]) read?
**A.** The value was “enhance AO directed DMD exon 51 skipping”.

**Q.** Which “Fluorescence Plate 1” value [2, 5] does the source give for Ryanodine here?
**A.** The value was 7.93.

**Q.** What about the “Fluorescence Plate 2” value [2, 6] of the same compound?
**A.** The value was 28.86.

**Q.** And the “Fluorescence Plate 3” value [2, 6]?
**A.** Its value is 13.31.

**Q.** And the “Average Fluorescence (n = 3)” value ([2]; With AON6 screen)?
**A.** The value was 16.70.

**Q.** What about the “AO directed DMD exon 51 skipping” value (DMD exon 51 [1]) of the same compound?
**A.** Its value is “enhance AO directed DMD exon 51 skipping”.

**Q.** For `O=C(O)[C@@H]1[C@H]2C[C@H]3c4[nH]c5ccccc5c4CCN3C[C@@H]2CC[C@@H]1O` [Yohimbinic acid], which “AO directed DMD exon 51 skipping” value (DMD exon 51 [1]) is on record?
**A.** Its value is “enhance AO directed DMD exon 51 skipping”.

**Q.** For `O=C(Nc1ccc([N+](=O)[O-])cc1Cl)c1cc(Cl)ccc1O` [Niclosamide], which “efficacy” value (exon skipping) is on record?
**A.** Its value is “showing efficacy in counter screen and on mdx mouse myotubes”.

**Q.** With `Cc1c2ccncc2c(C)c2c1[nH]c1ccccc12` [Ellipticine] as the compound, how does the “efficacy” value (exon skipping) read?
**A.** The value was “showing efficacy in counter screen and on mdx mouse myotubes”.

**Q.** With `COc1ccc2c(c1)CN(C)CCS2` [RyCal S107] as the compound, how does the “AO directed DMD exon 51 skipping” value (DMD exon 51 [1]) read?
**A.** The value was “enhance AO directed DMD exon 51 skipping”.

Source: patent US10188633B2, “Identification of small molecules that facilitate therapeutic exon skipping” (The Regents of the University of California, priority 2011, dated 2019)
